Consider 30 molecules from ChEMBL document CHEMBL1156011, “Identification of orally bioavailable, non-amidine inhibitors of Urokinase Plasminogen Activator (uPA)” (Bioorg Med Chem Lett, 2009).

As a reminder, the IC50 is the point on the concentration scale where inhibition reaches its midpoint. High values mean weaker potency, low ones greater potency. As usually defined, the clearance is the volume of plasma or blood freed of the substance per unit of time. Usually Cmax stands for the maximum level reached in the sampled fluid or tissue. By Vd is commonly meant the apparent volume that relates the amount in the body to the concentration in plasma or blood. A high value points to wide distribution into tissue. A word on the bioavailability: it is the share of a dose that reaches the circulation, judged against a reference dose that is usually intravenous. A high value points to good availability. Broadly, the half-life is the time in which the quantity being followed falls by half.

Series [1] has as its target Urokinase-type plasminogen activator (Homo sapiens, UniProt P00749). The experiment in a line: Inhibition of uPA.
For a further series, the target named is Plasminogen (Homo sapiens, UniProt P00747). The experiment in a line: Inhibition of plasmin.
Plasminogen, sequence (P00747 97-580 limits assumed): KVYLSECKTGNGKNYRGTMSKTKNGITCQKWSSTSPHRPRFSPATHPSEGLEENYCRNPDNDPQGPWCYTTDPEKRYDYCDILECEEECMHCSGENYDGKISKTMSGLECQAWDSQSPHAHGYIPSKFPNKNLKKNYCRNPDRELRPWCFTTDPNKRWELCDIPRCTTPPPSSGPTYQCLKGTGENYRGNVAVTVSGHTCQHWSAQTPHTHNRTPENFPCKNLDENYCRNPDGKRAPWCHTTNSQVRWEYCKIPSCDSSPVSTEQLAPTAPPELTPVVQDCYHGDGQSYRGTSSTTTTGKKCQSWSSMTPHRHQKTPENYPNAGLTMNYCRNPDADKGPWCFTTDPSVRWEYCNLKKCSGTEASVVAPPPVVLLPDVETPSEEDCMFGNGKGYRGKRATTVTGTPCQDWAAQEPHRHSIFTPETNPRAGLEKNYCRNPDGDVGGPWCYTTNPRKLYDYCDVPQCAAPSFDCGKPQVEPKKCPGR
Plasminogen, sequence (P00747 581-810 limits assumed): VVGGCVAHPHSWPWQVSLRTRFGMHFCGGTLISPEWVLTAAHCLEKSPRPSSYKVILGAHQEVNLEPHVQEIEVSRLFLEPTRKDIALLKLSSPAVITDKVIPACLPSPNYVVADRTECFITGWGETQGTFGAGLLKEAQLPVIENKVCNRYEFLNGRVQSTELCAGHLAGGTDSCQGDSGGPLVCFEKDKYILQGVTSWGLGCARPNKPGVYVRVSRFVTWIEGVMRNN
Series [2] has as its target Tissue-type plasminogen activator (Homo sapiens, UniProt P00750). The experiment in a line: Inhibition of tPA.
Series [3] can be described thus: Clearance in rat. The series is classed as ADME, organism-based. The settings on record: in vivo.
Series [4] in a line: Cmax in rat. The series is classed as ADME, organism-based. The settings on record: in vivo.
Series [5] is described as follows: Volume of distribution in rat. The series is classed as ADME, organism-based. The settings on record: in vivo.
Series [6] is described as follows: Oral bioavailability in rat. The format is ADME, organism-based. The settings on record: in vivo.
The nature of series [7]: Half life in rat. The conditions noted are these: in vivo. The series is classed as ADME, organism-based.

Tissue-type plasminogen activator, sequence (P00750 whole entry): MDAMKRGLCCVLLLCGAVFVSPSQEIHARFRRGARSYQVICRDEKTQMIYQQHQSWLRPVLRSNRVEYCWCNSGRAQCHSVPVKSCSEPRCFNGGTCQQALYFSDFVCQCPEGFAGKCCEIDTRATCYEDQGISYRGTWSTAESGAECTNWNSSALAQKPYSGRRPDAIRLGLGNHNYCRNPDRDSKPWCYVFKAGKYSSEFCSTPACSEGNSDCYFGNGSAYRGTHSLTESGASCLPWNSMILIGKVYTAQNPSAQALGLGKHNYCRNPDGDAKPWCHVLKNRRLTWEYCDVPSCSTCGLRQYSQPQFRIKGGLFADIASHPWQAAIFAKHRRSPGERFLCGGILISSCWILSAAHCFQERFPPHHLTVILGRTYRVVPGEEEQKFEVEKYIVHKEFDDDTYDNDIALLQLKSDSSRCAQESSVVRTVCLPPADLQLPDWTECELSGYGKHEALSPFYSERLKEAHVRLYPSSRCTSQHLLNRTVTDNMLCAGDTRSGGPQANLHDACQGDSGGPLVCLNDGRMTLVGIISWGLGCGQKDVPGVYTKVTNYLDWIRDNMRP

In the case of `CN(C)c1ccc(C(=O)O)c(Oc2nc(Oc3cccc(-c4ccc(CN)cc4)c3)c(F)cc2F)c1`, in series [1], the IC50 is > 30 µM.
`CNc1c(F)c(Oc2cccc(-c3cccc(CN)c3)c2)nc(Oc2cc(N(C)C)ccc2C(=O)O)c1F`: the IC50 in series [1] stood at 0.13 µM; at Plasminogen, 3.6 µM; in series [2], 16 µM.
With `CN(C)Cc1cccc(-c2cccc(Oc3nc(Oc4cc(N(C)C)ccc4C(=O)O)c(F)cc3F)c2)c1`, the IC50 in series [1] was > 30 µM.
For the molecule `Cc1ccc(C(=O)O)c(Oc2nc(Oc3cc(-c4cccc(CN)c4)ccc3N)c(F)cc2F)c1`, the figures for the IC50 (in series [1]; against Plasminogen; in series [2]) were 0.089 µM, 11 µM and 15 µM, respectively.
For `COc1ccc(C(=O)O)c(Oc2nc(Oc3cccc(-c4cccc(CN)c4)c3)c(F)cc2F)c1` the same measures were 0.22 µM, 9.4 µM and > 30 µM.
Consider `NCc1cccc(-c2cccc(Oc3nc(Oc4ccccc4CC(=O)O)c(F)cc3F)c2)c1`, for which the IC50 in series [1] turned out to be 8.1 µM.
Still for that read-out and setting: under `CNCc1cccc(-c2cccc(Oc3nc(Oc4cc(N(C)C)ccc4C(=O)O)c(F)cc3F)c2)c1` stands > 30 µM.
With `Cc1ccc(C(=O)O)c(Oc2nc(Oc3cc(CN)cc(-c4cccc(CN)c4)c3)c(F)cc2F)c1`, the IC50 (in series [1]; on Plasminogen) was 2.7 µM each time.
For `Cc1c(F)c(Oc2cccc(-c3cccc(C(=N)N)c3)c2)nc(Oc2cc(N(C)C)ccc2C(=O)O)c1F`, the IC50 is 0.098 µM in series [1], 2.1 µM against Plasminogen and 3.9 µM in series [2].
On to `CN(C)c1ccc(C(=O)O)c(Oc2nc(Oc3cccc(-c4cccc(CN)c4)c3)c(F)cc2F)c1`, for which the 50% inhibitory concentration (IC50) in series [1] was found to be 0.1 µM; at Plasminogen it was 6.5 µM; in series [2] it was 18 µM. The same molecule returned a clearance in series [3] of 26 mL/min/kg. The same molecule showed a Cmax in series [4] of 33 ng/mL. In series [5], the Vd worked out at 1.15 L/kg. In series [6], this molecule registered a bioavailability of 9%. Further, the half-life in series [7] was 30 min.
`Cc1ccc(-n2cnnn2)c(Oc2nc(Oc3cccc(-c4cccc(CN)c4)c3)c(F)cc2F)c1` gave a half-inhibitory concentration (IC50) in series [1] of 13 µM.
Take `Cc1ccc(C(=O)O)c(Oc2nc(Oc3cc(O)cc(-c4cccc(CN)c4)c3)c(F)cc2F)c1`: the IC50 in series [1] was 0.023 µM; on Plasminogen it was 5.5 µM; in series [2], 14 µM.
`NCc1cccc(-c2cccc(Oc3nc(Oc4cccc(C(=O)O)c4)c(F)cc3F)c2)c1` showed an IC50 in series [1] of 20 µM.
Still for that read-out and setting: the same measure for `NCc1cccc(-c2cccc(Oc3nc(Oc4ccc(C(=O)O)cc4)c(F)cc3F)c2)c1`: > 30 µM.
Turning to `Cc1cccc(C(=O)O)c1Oc1nc(Oc2cccc(-c3cccc(CN)c3)c2)c(F)cc1F`, the figures for the IC50 (in series [1]; at Plasminogen) were 0.54 µM and 8.6 µM, respectively.
Turning to `Cc1ccc(C(=O)O)c(Oc2nc(Oc3cc(N)cc(-c4cccc(CN)c4)c3)c(F)c(N3CCC(N(C)C)C3)c2F)c1` (stereo unspecified), the values for the IC50 (in series [1]; at Plasminogen; in series [2]) were 0.015 µM, 3 µM and 8.5 µM, respectively.
`CN(C)CCN(C)c1c(F)c(Oc2cccc(-c3cccc(CN)c3)c2)nc(Oc2cc(N(C)C)ccc2C(=O)O)c1F`: the IC50 was 0.1 µM in series [1], 6.3 µM against Plasminogen and 28 µM in series [2].
`CN(C)c1ccc(C(=O)O)c(Oc2nc(Oc3cccc(-c4cccc(CN)c4)c3)c(F)c(N3CCNCC3)c2F)c1`: the IC50 in series [1] worked out at 0.065 µM; against Plasminogen, 4.4 µM; in series [2], 11 µM.
On to `Cc1ccc(C(=O)O)c(Oc2nc(Oc3ccc(N)c(-c4cccc(CN)c4)c3)c(F)cc2F)c1`, for which the IC50 in series [1] was > 30 µM.
`NCc1cccc(-c2cccc(Oc3nc(Oc4ccccc4C(=O)O)c(F)cc3F)c2)c1`: the IC50 was 0.84 µM in series [1], 21 µM on Plasminogen and > 30 µM in series [2].
`CN(C)c1ccc(C(=O)O)c(Oc2nc(Oc3cccc(-c4cccc(CN)c4)c3)c(F)c(N3CCOCC3)c2F)c1`: the IC50 in series [1] was determined as 0.9 µM; at Plasminogen, 2.1 µM; in series [2], 10 µM.
As for `CN(C)c1ccc(C(=O)O)c(Oc2nc(Oc3cccc(-c4cccc(CN)c4)c3)c(F)c(N3CCC(N(C)C)C3)c2F)c1` (stereo unspecified), the clearance in series [3] stood at 5 mL/min/kg. For the same molecule, in series [5], the Vd came to 1 L/kg. Besides, the IC50 against Plasminogen stood at 1.9 µM; in series [2] it was 5.2 µM. The bioavailability in series [6] was determined as 0%. The same molecule gave a half-life in series [7] of 276 min.
On to `Cc1cccc(Oc2nc(Oc3cccc(-c4cccc(CN)c4)c3)c(F)cc2F)c1C(=O)O`, for which the IC50 in series [1] was found to be 26 µM.
On the same count and under the same terms, under `Cc1ccc(Oc2nc(Oc3cccc(-c4cccc(CN)c4)c3)c(F)cc2F)c(C(=O)O)c1` stands 3.5 µM.
Turning to `Cc1ccc(C(=O)O)c(Oc2nc(Oc3cccc(-c4cccc(CN)c4)c3)c(F)cc2F)c1`, the IC50 in series [1] was determined as 0.24 µM; on Plasminogen, 5 µM; in series [2] it was 22 µM. The molecule further showed a clearance in series [3] of 54 mL/min/kg. For the same molecule, in series [4], the peak concentration (Cmax) stood at 220 ng/mL. In series [5], this molecule showed a Vd of 0.7 L/kg. This molecule also had a bioavailability in series [6] of 37%. The half-life in series [7] was 30 min.
`CC(C)c1ccc(C(=O)O)c(Oc2nc(Oc3cccc(-c4cccc(CN)c4)c3)c(F)cc2F)c1`: the IC50 is 0.68 µM in series [1] and 2.8 µM on Plasminogen.
As for `NCc1cccc(-c2cccc(Oc3nc(Oc4ccccc4CCC(=O)O)c(F)cc3F)c2)c1`, in series [1], the IC50 was > 30 µM.
As to `Cc1ccc(C(=O)O)c(Oc2nc(Oc3cc(N)cc(-c4cccc(CN)c4)c3)c(F)cc2F)c1`, the IC50 in series [1] was 0.039 µM; at Plasminogen, 5 µM; in series [2], > 30 µM. Besides, the clearance in series [3] was 257 mL/min/kg. In series [4], this molecule returned a Cmax of 59 ng/mL. The same molecule displayed a volume of distribution (Vd) in series [5] of 4.6 L/kg. This molecule yielded a bioavailability in series [6] of 18%. This molecule also had a half-life in series [7] of 15.6 min.
In the case of `CN(C)c1ccc(C(=O)O)c(Oc2nc(Oc3cccc(-c4cccc(CN)c4)c3)c(F)c(N(C)C)c2F)c1`, the IC50 was 0.53 µM in series [1], 2.9 µM against Plasminogen and > 30 µM in series [2].
For the molecule `NCc1cccc(-c2cccc(Oc3nc(Oc4cc([N+](=O)[O-])ccc4C(=O)O)c(F)cc3F)c2)c1`, the IC50 in series [1] worked out at 1.3 µM.
